Laboratory results taken from US9598463B2, “Mucin hypersecretion inhibitors and methods of use” (BIOMARCK PHARMACEUTICALS, LTD., priority 2005, dated 2017).
Marks after values point to notes of the source that are not given here. Where a SMILES comes first, the peptide text is derived from it. The star is where a group is joined. Myristoyl = CCCCCCCCCCCCCC(=O)*

System: methacholine-induced mucin hypersecretion
Test: Methacholine-induced mucin hypersecretion in ovalbumin-sensitized mouse model of asthma, BAL mucin ELISA (Balb/C mice)
Format: in vivo
Conditions: Table II, peptides at 100 μM, 50 μL intratracheal 15 min before methacholine
Description: Experiments were designed to test whether or not the MANS peptide and other test peptides related thereto inhibit hypersecretion of mucin in murine airway in vivo. The ovalbumin-sensitized mouse model of allergic inflammation and asthma used in these studies was as described by Singer et al. (2004), supra. As a negative control, a control peptide containing an N-terminal myristoyl group and the same amino acids as MANS peptide but arranged in random order (i.e., the random N-terminal sequence, RNS, myristoyl-peptide 232) was tested alongside the proposed active peptides. BP2 mice, aged 6-8 wks, were immunized subcutaneously twice at weekly intervals with 1 μg of ovalbumin. After 14 days of sensitization, the animals were exposed to aerosolized ovalbumin, which causes a pronounced goblet cell hyperplasia after 72 hours. At the 72 hr time point, the secretagogue, methacholine ([…]) was delivered using a Buxco system nebulizer providing a fine aerosol for 90 seconds. Fifteen min prior to the secretagogue challenge, 50 μL of the test peptide, at 3 different concentrations (10 μM, 100 μM, or 140 μM), was administered by intratracheal route. The RNS peptide was tested at the highest dose level only (50 μL of 140 μM solution). […] Each experiment was carried out in 6 mice per point, and each set of experiments was repeated 3 times. To test strain-to-strain variations, the above experiment was repeated in Balb/C mice under similar protocol. Both stimulated and unstimulated mucin secretion, in mice treated with […] sodium acetate (data not shown), were identical to saline control. Following the methacholine challenge, the animals were sacrificed and bronchoalveolar lavage (BAL) performed on 6 animals per group for analysis of secreted mucin.
Mice were sacrificed by cervical dislocation, followed by rapid exposure of the trachea and insertion of a cannula through a small incision. Bronchoalveolar lavage (BAL) fluid was collected with 0.5 ml followed by 3×1 ml PBS containing PMSF (5 mM), EDTA (5 mM), and DTT (5 mM). BAL fluid was separated into cell-free and cell fractions via brief centrifugation prior to any analyses being performed. The cell-free supernatants were analyzed for the presence of mucin via an ELISA method using anti-mucin antibodies shown to react with mouse mucin. Specifically, a mouse anti-MUC5AC antibody that recognizes the carbohydrate portion of secreted mucin was used in these assays. Data generated from each BAL sample were normalized to total protein as determined by Bradford assay. Mucin content was expressed as the value obtained with the anti-mucin antibody minus that obtained with the non-immune control antibody. All ELISA data were statistically examined using a one-way ANOVA.

Row | Molecule | Mucin Secretion % control
1 | H-GAQFSKTAAKGE-OH [peptide 79, GAQFSKTAAKGE] | 10 % control
2 | CCCCCCCCCCCCCC(=O)NCC(=O)N[C@@H](CCCCN)C(=O)N[C@@H](CCC(N)=O)C(=O)N[C@@H](Cc1ccccc1)C(=O)N[C@@H](CO)C(=O)N[C@@H](CCCCN)C(=O)N[C@H](C(=O)N[C@@H](C)C(=O)N[C@@H](C)C(=O)N[C@@H](CCCCN)C(=O)NCC(=O)N[C@@H](CCC(=O)O)C(=O)O)[C@@H](C)O [myr-peptide 233] (Myristoyl-GKQFSKTAAKGE-OH) | 21 % control
3 | CCCCCCCCCCCCCC(=O)NCC(=O)N[C@@H](CCCCN)C(=O)N[C@@H](CCC(N)=O)C(=O)N[C@@H](Cc1ccccc1)C(=O)N[C@@H](CO)C(=O)N[C@@H](CCCCN)C(=O)N[C@H](C(=O)N[C@@H](CCCCN)C(=O)N[C@@H](C)C(=O)N[C@@H](CCCCN)C(=O)NCC(=O)N[C@@H](CCC(=O)O)C(=O)O)[C@@H](C)O [myr-peptide 235] (Myristoyl-GKQFSKTKAKGE-OH) | 13 % control
4 | CCCCCCCCCCCCCC(=O)NCC(=O)N[C@@H](C)C(=O)N[C@@H](CCC(N)=O)C(=O)N[C@@H](Cc1ccccc1)C(=O)N[C@@H](CO)C(=O)N[C@@H](CCCCN)C(=O)N[C@H](C(=O)N[C@@H](C)C(N)=O)[C@@H](C)O [myr-peptide 137-NH2] (Myristoyl-GAQFSKTA-NH2) | 56 % control

Same assay, conditions: Table III, peptides at 100 μM

Row | Molecule | Mucin Secretion % control
5 | CCCCCCCCCCCCCC(=O)NCC(=O)N[C@@H](C)C(=O)N[C@@H](CCC(N)=O)C(=O)N[C@@H](Cc1ccccc1)C(=O)N[C@@H](CO)C(=O)N[C@@H](CCCCN)C(=O)N[C@H](C(=O)N[C@@H](C)C(=O)N[C@@H](C)C(=O)N[C@@H](CCCCN)C(=O)NCC(=O)N[C@@H](CCC(=O)O)C(=O)N[C@@H](C)C(=O)N[C@@H](C)C(=O)N[C@@H](C)C(=O)N[C@@H](CCC(=O)O)C(=O)O)[C@@H](C)O [myr-peptide 37] (Myristoyl-GAQFSKTAAKGEAAAE-OH) | 35** % control
6 | CCCCCCCCCCCCCC(=O)N[C@@H](CCCNC(=N)N)C(=O)N1CCC[C@H]1C(=O)NCC(=O)N[C@@H](CCC(=O)O)C(=O)N[C@@H](C)C(=O)N[C@@H](C)C(=O)N[C@H](C(=O)N[C@@H](C)C(=O)O)C(C)C [myr-peptide 153] (Myristoyl-RPGEAAVA-OH) | 50 % control
7 | CCCCCCCCCCCCCC(=O)N[C@@H](CO)C(=O)N[C@@H](CCCCN)C(=O)N[C@H](C(=O)N[C@@H](C)C(=O)N[C@@H](C)C(=O)N[C@@H](CCCCN)C(=O)NCC(=O)N[C@@H](CCC(=O)O)C(=O)N[C@@H](C)C(=O)N[C@@H](C)C(=O)N[C@@H](C)C(=O)N[C@@H](CCC(=O)O)C(=O)N[C@@H](CCCNC(=N)N)C(=O)N1CCC[C@H]1C(=O)NCC(=O)N[C@@H](CCC(=O)O)C(=O)N[C@@H](C)C(=O)N[C@@H](C)C(=O)N[C@H](C(=O)N[C@@H](C)C(=O)O)C(C)C)[C@@H](C)O [myr-peptide 15] (Myristoyl-SKTAAKGEAAAERPGEAAVA-OH) | 38* % control

System: not listed separately
Test: Qualitative solubility of test peptides in 0.5 N saline
Format: physicochemical
Conditions: pH 6.5, 20° C. (table title)
Method: Various test peptides (1 to 5 mg each) were weighed out accurately in individual 2 mL screw cap glass vials and aliquots of 25 μL of 0.5 N saline, pH 6.5, were added at 25° C. and ambient pressure. The solubility was evaluated visually. If the test peptide dissolves completely with the first aliquot of saline, its solubility was calculated and designated as more than the calculated amount. […] Similarly, if 1.7 mg of a test peptide fails to dissolve in 1.7 mL of 0.5 N saline, its solubility is stated as <1.0 mg/mL.

Row | Molecule | solubility
8 | H-GAQFSKTAAKGE-OH [peptide 79, GAQFSKTAAKGE] | > 60 mg/mL
9 | Ac-GAQFSATAAA-OH [Ac-peptide 249] | < 1 mg/mL
10 | CCCCCCCCCCCCCC(=O)N[C@H](C(=O)N[C@@H](C)C(=O)N[C@@H](C)C(=O)N[C@@H](CCCCN)C(=O)NCC(=O)N[C@@H](CCC(=O)O)C(=O)N[C@@H](C)C(=O)N[C@@H](C)C(=O)O)[C@@H](C)O [myr-peptide 143] (Myristoyl-TAAKGEAA-OH) | < 1 mg/mL
11 | CCCCCCCCCCCCCC(=O)NCC(=O)N[C@@H](C)C(=O)N[C@@H](CCC(N)=O)C(=O)N[C@@H](Cc1ccccc1)C(=O)N[C@@H](CO)C(=O)N[C@@H](CCCCN)C(=O)N[C@H](C(=O)N[C@@H](C)C(=O)N[C@@H](C)C(=O)N[C@@H](CCCCN)C(=O)NCC(=O)N[C@@H](CCC(=O)O)C(=O)N[C@@H](C)C(=O)N[C@@H](C)C(=O)N[C@@H](C)C(=O)N[C@@H](CCC(=O)O)C(=O)O)[C@@H](C)O [myr-peptide 37] (Myristoyl-GAQFSKTAAKGEAAAE-OH) | > 2 mg/mL
12 | Ac-GAQFSKAAAK-OH [Ac-peptide 247] | > 100 mg/mL
13 | Ac-GAQFSKTAAKGA-OH [Ac-peptide 241] | > 50 mg/mL
14 | CCCCCCCCCCCCCC(=O)NCC(=O)N[C@@H](CCCCN)C(=O)N[C@@H](CCC(N)=O)C(=O)N[C@@H](Cc1ccccc1)C(=O)N[C@@H](CO)C(=O)N[C@@H](CCCCN)C(=O)N[C@H](C(=O)N[C@@H](C)C(=O)N[C@@H](C)C(=O)N[C@@H](CCCCN)C(=O)NCC(=O)N[C@@H](CCC(=O)O)C(=O)O)[C@@H](C)O [myr-peptide 233] (Myristoyl-GKQFSKTAAKGE-OH) | > 3 mg/mL
15 | Ac-GAQFSKTAAAGE-OH [Ac-peptide 239] | > 50 mg/mL
16 | Ac-TAAKGEAA-OH [Ac-peptide 143] | > 230 mg/mL
17 | CCCCCCCCCCCCCC(=O)N[C@@H](C)C(=O)N[C@@H](CCCCN)C(=O)NCC(=O)N[C@@H](CCC(=O)O)C(=O)O [myr-peptide 219] (Myristoyl-AKGE-OH) | < 1 mg/mL
18 | CCCCCCCCCCCCCC(=O)N[C@@H](CCCNC(=N)N)C(=O)N1CCC[C@H]1C(=O)NCC(=O)N[C@@H](CCC(=O)O)C(=O)N[C@@H](C)C(=O)N[C@@H](C)C(=O)N[C@H](C(=O)N[C@@H](C)C(=O)O)C(C)C [myr-peptide 153] (Myristoyl-RPGEAAVA-OH) | < 10 mg/mL
19 | CC(=O)N[C@@H](C)C(=O)N[C@@H](CCCCN)C(=O)NCC(=O)N[C@@H](CCC(=O)O)C(N)=O [Ac-peptide 219-NH2] (Ac-AKGE-NH2) | > 200 mg/mL
20 | Ac-AAKGEA-OH [Ac-peptide 179] | > 150 mg/mL
21 | CCCCCCCCCCCCCC(=O)NCC(=O)N[C@@H](CCCCN)C(=O)N[C@@H](CCC(N)=O)C(=O)N[C@@H](Cc1ccccc1)C(=O)N[C@@H](CO)C(=O)N[C@@H](CCCCN)C(=O)N[C@H](C(=O)N[C@@H](CCCCN)C(=O)N[C@@H](C)C(=O)N[C@@H](CCCCN)C(=O)NCC(=O)N[C@@H](CCC(=O)O)C(=O)O)[C@@H](C)O [myr-peptide 235] (Myristoyl-GKQFSKTKAKGE-OH) | > 60 mg/mL
22 | Ac-GAQFSKTAA-OH [Ac-peptide 121] | > 20 mg/mL
23 | CCCCCCCCCCCCCC(=O)NCC(=O)N[C@@H](C)C(=O)N[C@@H](CCC(N)=O)C(=O)N[C@@H](C)C(=O)N[C@@H](CO)C(=O)N[C@@H](CCCCN)C(=O)N[C@H](C(=O)N[C@@H](C)C(=O)N[C@@H](C)C(=O)N[C@@H](CCCCN)C(=O)NCC(=O)N[C@@H](CCC(=O)O)C(N)=O)[C@@H](C)O [myr-peptide 237-NH2] (Myristoyl-GAQASKTAAKGE-NH2) | < 1 mg/mL
24 | CCCCCCCCCCCCCC(=O)NCC(=O)N[C@@H](C)C(=O)N[C@@H](CCC(N)=O)C(=O)N[C@@H](C)C(=O)N[C@@H](CO)C(=O)N[C@@H](CCCCN)C(=O)N[C@H](C(=O)N[C@@H](C)C(=O)N[C@@H](C)C(=O)N[C@@H](CCCCN)C(=O)NCC(=O)N[C@@H](CCC(=O)O)C(=O)O)[C@@H](C)O [myr-peptide 237] (Myristoyl-GAQASKTAAKGE-OH) | < 1 mg/mL
25 | CCCCCCCCCCCCCC(=O)N[C@@H](CO)C(=O)N[C@@H](CCCCN)C(=O)N[C@H](C(=O)N[C@@H](C)C(=O)N[C@@H](C)C(=O)N[C@@H](CCCCN)C(=O)NCC(=O)N[C@@H](CCC(=O)O)C(=O)N[C@@H](C)C(=O)N[C@@H](C)C(=O)N[C@@H](C)C(=O)N[C@@H](CCC(=O)O)C(=O)N[C@@H](CCCNC(=N)N)C(=O)N1CCC[C@H]1C(=O)NCC(=O)N[C@@H](CCC(=O)O)C(=O)N[C@@H](C)C(=O)N[C@@H](C)C(=O)N[C@H](C(=O)N[C@@H](C)C(=O)O)C(C)C)[C@@H](C)O [myr-peptide 15] (Myristoyl-SKTAAKGEAAAERPGEAAVA-OH) | > 80 mg/mL
